Assay results published in patent publication US20230115274A1, “COMPOUNDS AND COMPOSITIONS FOR TREATING CONDITIONS ASSOCIATED WITH STING ACTIVITY” (IFM Due, Inc., priority 2019, published 2023).

These compounds were tested against T1, hSTING (Homo sapiens, UniProt Q86WV6, G230A/H232R/R293Q/R71H) (assay: STING reporter assay (luciferase) in THP1-Dual KO-IFNAR2 cells stimulated with 2′3′cGAMP). Details: 2′3′cGAMP 15 μM, 24 h, class symbols.
T1 construct: host or cells: THP1-Dual KO-IFNAR2 cells
Format: cell-based
Method: STING pathway activation by the compounds described herein was measured using THP1-Dual™ cells (KO-IFNAR2).
THP1-Dual™ KO-IFNAR2 Cells (obtained from invivogen) were maintained in RPMI, 10% FCS, 5 ml P/S, 2 mM L-glut, 10 mM Hepes, and 1 mM sodium pyruvate. Compounds were spotted in empty 384 well tissue culture plates (Greiner 781182) by Echo for a final concentration of 0.0017-100 μM. Cells were plated into the TC plates at […], 2×10E6 cells/mL. For activation with STING ligand, 2′3′cGAMP (MW 718.38, obtained from Invivogen), was prepared in Optimem media.
The following solutions were prepared for each 1×384 plate: • Solution A: 2 mL Optimem with one of the following stimuli: • […] • Solution B: 2 mL Optimem with 60 μL Lipofectamine 2000->Incubate 5 min at RT
2 mL of solution A and 2 ml Solution B was mixed and incubated for 20 min at room temperature (RT). 20 uL of transfection solution (A+B) was added on top of the plated cells, with a final 2′3′cGAMP concentration of 15 μM. The plates were then centrifuged immediately at 340 g for 1 minute, after which they were incubated at 37° C., 5% CO2, >98% humidity for 24 h. Luciferase reporter activity was then measured. EC50 values were calculated by using standard methods known in the art.
Luciferase reporter assay: 10 μL of supernatant from the assay was transferred to white 384-plate with flat bottom and squared wells. One pouch of QUANTI-Luc™ Plus was dissolved in 25 mL of water. 100 μL of QLC Stabilizer per 25 mL of QUANTI-Luc™ Plus solution was added. 50 μL of QUANTI-Luc™ Plus/QLC solution per well was then added. Luminescence was measured on a Platereader (e.g., Spectramax I3X (Molecular Devices GF3637001)).
Luciferase reporter activity was then measured. EC50 values were calculated by using standard methods known in the art.

T1 sequence (Q86WV6 whole entry R71H/G230A/H232R/R293Q): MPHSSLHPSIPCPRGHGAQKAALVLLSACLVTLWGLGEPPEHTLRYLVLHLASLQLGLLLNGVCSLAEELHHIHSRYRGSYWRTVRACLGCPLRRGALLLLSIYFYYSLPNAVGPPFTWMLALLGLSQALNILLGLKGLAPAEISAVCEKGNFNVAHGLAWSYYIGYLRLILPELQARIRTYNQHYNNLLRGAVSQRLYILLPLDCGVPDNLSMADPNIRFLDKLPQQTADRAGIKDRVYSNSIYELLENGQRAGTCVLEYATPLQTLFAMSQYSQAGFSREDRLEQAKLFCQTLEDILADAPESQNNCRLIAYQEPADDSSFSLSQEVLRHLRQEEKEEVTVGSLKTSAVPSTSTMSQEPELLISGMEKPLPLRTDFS

SMILES | EC50 [nM]
COc1cc(NC(=O)Nc2c[nH]c3ncc(F)cc23)ncc1C1CCC(F)(F)CC1 [Compound 160, 1-(5-(4,4-difluorocyclohexyl)-4-methoxypyridin-2-yl)-3-(5-fluoro-1H-pyrrolo[2,3-b]pyridin-3-yl)urea] | 200 to 1000
COc1cnc2[nH]cc(NC(=O)Nc3cnc(N4CCC(F)(F)CC4)c(Cl)c3)c2c1 [Compound 181, 1-(5-chloro-6-(4,4-difluoropiperidin-1-yl)pyridin-3-yl)-3-(5-methoxy-1H-pyrrolo[2,3-b]pyridin-3-yl)urea] | 200 to 1000
COc1cc2c(NC(=O)Nc3ccc(C4CCC(F)(F)CC4)c(C#N)c3)c[nH]c2cn1 [Compound 154, 1-(3-cyano-4-(4,4-difluorocyclohexyl)phenyl)-3-(5-methoxy-1H-pyrrolo[2,3-c]pyridin-3-yl)urea] | 200 to 1000
COc1ccc2[nH]cc(NC(=O)Nc3cnc(C4CC(F)(F)C4)c(Cl)c3)c2n1 [Compound 243, 1-(5-chloro-6-(3,3-difluorocyclobutyl)pyridin-3-yl)-3-(5-methoxy-1H-pyrrolo[3,2-b]pyridin-3-yl)urea] | 200 to 1000
O=C(Nc1cnc(N2CCN(CCC(F)(F)F)CC2)c(Cl)c1)Nc1c[nH]c2cccnc12 [Compound 225, 1-(5-chloro-6-(4-(3,3,3-trifluoropropyl)piperazin-1-yl)pyridin-3-yl)-3-(1H-pyrrolo[3,2-b]pyridin-3-yl)urea] | 1000 to 5000
O=C(Nc1ccc(C2CCC(F)(F)CC2)nc1)Nc1c[nH]c2ncc(F)c(Br)c12 [Compound 182, 1-(4-bromo-5-fluoro-1H-pyrrolo[2,3-b]pyridin-3-yl)-3-(6-(4,4-difluorocyclohexyl)pyridin-3-yl)urea] | 5000 to 100000
CCc1cc(NC(=O)Nc2c[nH]c3ncc(F)cc23)cnc1N1CCC(F)(F)CC1 [Compound 163, 1-(6-(4,4-difluoropiperidin-1-yl)-5-ethylpyridin-3-yl)-3-(5-fluoro-1H-pyrrolo[2,3-b]pyridin-3-yl)urea] | 200 to 1000
COc1ccc2[nH]cc(NC(=O)Nc3ccc(C4CCC(F)(F)CC4)c(C#N)c3)c2n1 [Compound 150, 1-(3-cyano-4-(4,4-difluorocyclohexyl)phenyl)-3-(5-methoxy-1H-pyrrolo[3,2-b]pyridin-3-yl)urea] | 200 to 1000
COc1cnc2[nH]cc(NC(=O)Nc3cnc(N4CCC(F)(F)CC4)c(C)c3)c2c1 [Compound 168, 1-(6-(4,4-difluoropiperidin-1-yl)-5-methylpyridin-3-yl)-3-(5-methoxy-1H-pyrrolo[2,3-b]pyridin-3-yl)urea] | 200 to 1000
O=C(Nc1cnc(N2CCC(F)(F)CC2)c(Cl)c1)Nc1c[nH]c2cccnc12 [Compound 188, 1-(5-chloro-6-(4,4-difluoropiperidin-1-yl)pyridin-3-yl)-3-(1H-pyrrolo[3,2-b]pyridin-3-yl)urea] | 200 to 1000
Cc1cc(NC(=O)Nc2c[nH]c3ncc(F)cc23)cnc1N1CCC2(CC1)CC2 [Compound 192, 1-(5-fluoro-1H-pyrrolo[2,3-b]pyridin-3-yl)-3-(5-methyl-6-(6-azaspiro[2.5]octan-6-yl)pyridin-3-yl)urea] | 40 to 200
O=C(Nc1cnc(C2CCC(F)(F)CC2)c(F)c1)Nc1c[nH]c2cccnc12 [Compound 234, 1-(6-(4,4-difluorocyclohexyl)-5-fluoropyridin-3-yl)-3-(1H-pyrrolo[3,2-b]pyridin-3-yl)urea] | 200 to 1000
COc1ccc2[nH]cc(NC(=O)Nc3cnc(N4CCC5(CC4)CC(F)(F)C5)c(Cl)c3)c2n1 [Compound 203, 1-(5-chloro-6-(2,2-difluoro-7-azaspiro[3.5]nonan-7-yl)pyridin-3-yl)-3-(5-methoxy-1H-pyrrolo[3,2-b]pyridin-3-yl)urea] | 200 to 1000
COc1ccc2[nH]cc(NC(=O)Nc3ccc(C4CCC(F)(F)CC4)nc3)c2n1 [Compound 213, 1-(6-(4,4-difluorocyclohexyl)pyridin-3-yl)-3-(5-methoxy-1H-pyrrolo[3,2-b]pyridin-3-yl)urea] | 200 to 1000
O=C(Nc1cnc(N2CCC(F)(F)CC2)c(Cl)c1)Nc1c[nH]c2ncc(F)cc12 [Compound 110, 1-(5-chloro-6-(4,4-difluoropiperidin-1-yl)pyridin-3-yl)-3-(5-fluoro-1H-pyrrolo[2,3-b]pyridin-3-yl)urea] | 40 to 200
COc1cnc2[nH]cc(NC(=O)Nc3cnc(N4CCC(F)(F)CC4)c(F)c3)c2c1 [Compound 184, 1-(6-(4,4-difluoropiperidin-1-yl)-5-fluoropyridin-3-yl)-3-(5-methoxy-1H-pyrrolo[2,3-b]pyridin-3-yl)urea] | 200 to 1000
O=C(Nc1cnc(C2CC(F)(F)C2)c(Cl)c1)Nc1c[nH]c2ncc(F)cc12 [Compound 166, 1-(5-chloro-6-(3,3-difluorocyclobutyl)pyridin-3-yl)-3-(5-fluoro-1H-pyrrolo[2,3-b]pyridin-3-yl)urea] | 200 to 1000
CC(=O)n1cc(NC(=O)Nc2ccc(C3CCC(F)(F)CC3)nc2)c2cc(F)cnc21 [Compound 122, 1-(1-acetyl-5-fluoro-1H-pyrrolo[2,3-b]pyridin-3-yl)-3-(6-(4,4-difluorocyclohexyl)pyridin-3-yl)urea] | 200 to 1000
Cc1cc(NC(=O)Nc2c[nH]c3ncc(Cl)cc23)cnc1C1CCC(F)(F)CC1 [Compound 137, 1-(5-chloro-1H-pyrrolo[2,3-b]pyridin-3-yl)-3-(6-(4,4-difluorocyclohexyl)-5-methylpyridin-3-yl)urea] | 1000 to 5000
O=C(Nc1cnc(C2CCC(F)(F)CC2)c(F)c1)Nc1c[nH]c2ncc(F)cc12 [Compound 113, 1-(6-(4,4-difluorocyclohexyl)-5-fluoropyridin-3-yl)-3-(5-fluoro-1H-pyrrolo[2,3-b]pyridin-3-yl)urea] | 40 to 200
Cc1cc(NC(=O)Nc2c[nH]c3cccnc23)cnc1N1CCC(F)(F)CC1 [Compound 146, 1-(6-(4,4-difluoropiperidin-1-yl)-5-methylpyridin-3-yl)-3-(1H-pyrrolo[3,2-b]pyridin-3-yl)urea] | 1000 to 5000
O=C(Nc1cc(Cl)c(N2CCC(F)(F)CC2)cn1)Nc1c[nH]c2cccnc12 [Compound 235, 1-(4-chloro-5-(4,4-difluoropiperidin-1-yl)pyridin-2-yl)-3-(1H-pyrrolo[3,2-b]pyridin-3-yl)urea] | 1000 to 5000
O=C(Nc1cnc(C2CC(F)(F)C2)c(Cl)c1)Nc1c[nH]c2cccnc12 [Compound 143, 1-(5-chloro-6-(3,3-difluorocyclobutyl)pyridin-3-yl)-3-(1H-pyrrolo[3,2-b]pyridin-3-yl)urea] | 200 to 1000
O=C(Nc1cnc(Cl)c(C2CCC(F)(F)CC2)c1)Nc1c[nH]c2cccnc12 [Compound 214, 1-(6-chloro-5-(4,4-difluorocyclohexyl)pyridin-3-yl)-3-(1H-pyrrolo[3,2-b]pyridin-3-yl)urea] | 5000 to 100000
O=C(Nc1ccc(C2CCC(F)(F)CC2)nc1)Nc1c[nH]c2ncc(F)cc12 [Compound 116, 1-(6-(4,4-difluorocyclohexyl)pyridin-3-yl)-3-(5-fluoro-1H-pyrrolo[2,3-b]pyridin-3-yl)urea] | 200 to 1000
O=C(Nc1ccc(C2CCC(F)(F)CC2)nc1)Nc1cn(Cc2ccccc2)c2ncc(F)cc12 [Compound 104, 1-(1-benzyl-5-fluoro-1H-pyrrolo[2,3-b]pyridin-3-yl)-3-(6-(4,4-difluorocyclohexyl)pyridin-3-yl)urea] | 5000 to 100000
O=C(Nc1cnc(N2CC3(C2)CC(F)(F)C3)c(Cl)c1)Nc1c[nH]c2cccnc12 [Compound 223, 1-(5-chloro-6-(6,6-difluoro-2-azaspiro[3.3]heptan-2-yl)pyridin-3-yl)-3-(1H-pyrrolo[3,2-b]pyridin-3-yl)urea] | 200 to 1000

Same assay, conditions: 2′3′cGAMP 15 μM, 24 h, numeric bounds

SMILES | EC50 [nM]
Cc1cc(NC(=O)Nc2c[nH]c3ncc(F)cc23)cnc1N1CC2(CC(O)C2)C1 [Compound 156, 1-(5-fluoro-1H-pyrrolo[2,3-b]pyridin-3-yl)-3-(6-(6-hydroxy-2-azaspiro[3.3]heptan-2-yl)-5-methylpyridin-3-yl)urea] | > 30000
Cn1cc(NC(=O)Nc2ccc(C3CCC(F)(F)CC3)nc2)c2cc(F)cnc21 [Compound 127, 1-(6-(4,4-difluorocyclohexyl)pyridin-3-yl)-3-(5-fluoro-1-methyl-1H-pyrrolo[2,3-b]pyridin-3-yl)urea] | > 30000
CNC1CC(n2cc(NC(=O)Nc3ccc(C4CCC(F)(F)CC4)nc3)c3cc(F)cnc32)C1 (stereo not shown) [Compound 124, 1-(6-(4,4-difluorocyclohexyl)pyridin-3-yl)-3-(5-fluoro-1-(3-(methylamino)cyclobutyl)-1H-pyrrolo[2,3-b]pyridin-3-yl)urea] | > 30000
Cc1cc(NC(=O)Nc2c[nH]c3ncc(F)cc23)cnc1N1CC2(COC2)C1 [Compound 159, 1-(5-fluoro-1H-pyrrolo[2,3-b]pyridin-3-yl)-3-(5-methyl-6-(2-oxa-6-azaspiro[3.3]heptan-6-yl)pyridin-3-yl)urea] | > 30000
